# Patent US10294202B2, “Pyrrolidinones as herbicides” (FMC Corporation, priority 2013, dated 2019)
# What was measured:
# barnyardgrass = assay: Test B flooded paddy test; type: in vivo, Echinochloa crus-galli; settings: 250 g ai/ha, Flood; scale of 0 to 100 where 0 is no effect and 100 is complete control
# Procedure, shortened: (§1)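 Treatment was made at the 2-leaf stage by dosing the standing floodwater, kept 3 cm above soil level for the whole test. Greenhouse exposure lasted 13 to 15 days. Response is a visual percent rating relative to controls, where a dash indicates no test result.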
# morningglory = assay: Test C pre-/postemergence herbicide test; type: in vivo, Ipomoea coccinea
# Procedure, shortened: (§2)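 Pre- and postemergence greenhouse screen. Preemergence treatment went onto freshly planted seeds in loam–sand soil; postemergence treatment went onto plants 2 to 18 cm tall at the 1- to 4-leaf stage in sphagnum peat/vermiculite medium. Scoring at 13 to 15 days used a 0–100 control scale.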
# oat, wild = assay: Test C pre-/postemergence herbicide test; type: in vivo, Avena fatua
# Procedure, shortened: as §2
# rice = assay: Test B flooded paddy test; type: in vivo, Oryza sativa; settings: 250 g ai/ha, Flood; scale of 0 to 100 where 0 is no effect and 100 is complete control
# Procedure, shortened: as §1
# pigweed = assay: Test A pre-/postemergence herbicide test; type: in vivo, Amaranthus retroflexus; settings: for Pigweed plant response rating: Preemergence, visual rating on 0 to 100 scale (0 no effect, 100 complete control)
# Procedure, shortened: (§3)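 Visual injury ratings, 0 = no effect, 100 = complete control, taken ~10 days after treatment against untreated greenhouse controls. Preemergence: directed soil spray onto seeded loam/sand pots. Postemergence: spray onto plants at one- to two-leaf stage, 2–10 cm tall.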
# corn = assay: Test A pre-/postemergence herbicide test; type: in vivo, Zea mays; settings: for Corn plant response rating: Preemergence, visual rating on 0 to 100 scale (0 no effect, 100 complete control)
# Procedure, shortened: as §3
# sedge, umbrella = assay: Test B flooded paddy test; type: in vivo, Cyperus difformis; settings: 250 g ai/ha, Flood; scale of 0 to 100 where 0 is no effect and 100 is complete control
# Procedure, shortened: as §1
# wheat = assay: Test A pre-/postemergence herbicide test; type: in vivo, Triticum aestivum; settings: for Wheat plant response rating: Preemergence, visual rating on 0 to 100 scale (0 no effect, 100 complete control)
# Procedure, shortened: as §3
# wheat (winter wheat) = assay: Test C pre-/postemergence herbicide test; type: in vivo, Triticum aestivum
# Procedure, shortened: as §2
# ragweed = assay: Test C pre-/postemergence herbicide test; type: in vivo, Ambrosia elatior
# Procedure, shortened: as §2
# oilseed rape = assay: Test C pre-/postemergence herbicide test; type: in vivo, Brassica napus
# Procedure, shortened: as §2
# waterhemp = assay: Test C pre-/postemergence herbicide test; type: in vivo, Amaranthus rudis
# Procedure, shortened: as §2
# [1] = Postemergence, 16 g ai/ha, scale 0 to 100 (0 no effect, 100 complete control)
# [2] = Postemergence, 31 g ai/ha, scale 0 (no effect) to 100 (complete control)
# [3] = Postemergence, 62 g ai/ha, scale 0 to 100 (0 no effect, 100 complete control)
# [4] = Postemergence, 125 g ai/ha, scale 0 to 100 (0 no effect, 100 complete control)
# [5] = Preemergence, 62 g ai/ha, scale 0 to 100
# [6] = Preemergence, 125 g ai/ha, scale 0 to 100 (0 no effect, 100 complete control)
# [7] = Preemergence, 16 g ai/ha, scale 0 to 100
# [8] = Postemergence, 125 g ai/ha, 0 to 100 scale, 0 no effect, 100 complete control
# [9] = Postemergence, 500 g ai/ha, 0 to 100 scale (0 no effect, 100 complete control)
# [10] = preemergence, 500 g ai/ha, 0 to 100 scale
# [11] = Postemergence, 250 g ai/ha, scale 0 to 100 (0 no effect, 100 complete control)
# [12] = Postemergence, 31 g ai/ha, scale 0 to 100 (0 no effect, 100 complete control)
# [13] = Postemergence, 62 g ai/ha, scale 0 (no effect) to 100 (complete control)
# [14] = Preemergence, 31 g ai/ha, scale 0 to 100, 0 is no effect and 100 is complete control
# [15] = Preemergence, 62 g ai/ha, scale 0 to 100 (0 no effect, 100 complete control)
# [16] = Postemergence, 125 g ai/ha, 0 to 100 scale, 0 is no effect, 100 is complete control
compound,measurement,setting,value
O=C1NCC(c2cc(F)c(F)c(F)c2)C1C(=O)Nc1cccc(F)c1F (stereo not drawn) [Compound 48],"Plant response rating, Barnyardgrass",barnyardgrass,40
same,"Plant response rating, Morningglory",morningglory; [1],10
same,"Plant response rating, Morningglory",morningglory; [2],10
same,"Plant response rating, Morningglory",morningglory; [3],10
same,"Plant response rating, Morningglory",morningglory; [4],10
same,"Plant response rating, Morningglory",morningglory; [5],0
same,"Plant response rating, Morningglory",morningglory; [6],15
same,"Plant response rating, Morningglory",morningglory; [7],0
same,"Plant response rating, Oat, Wild","oat, wild; [1]",0
same,"Plant response rating, Oat, Wild","oat, wild; [2]",0
same,"Plant response rating, Oat, Wild","oat, wild; [3]",0
same,"Plant response rating, Oat, Wild","oat, wild; [4]",0
same,"Plant response rating, Oat, Wild","oat, wild; [5]",0
same,"Plant response rating, Oat, Wild","oat, wild; [6]",10
same,"Plant response rating, Oat, Wild","oat, wild; [7]",0
same,"Plant response rating, Rice",rice,20
same,"Plant response rating, Pigweed",pigweed; [8],0
same,"Plant response rating, Pigweed",pigweed; [9],0
same,Pigweed plant response rating,pigweed; 125 g ai/ha,0
same,"Plant response rating, Pigweed",pigweed; [10],0
same,"Plant response rating, Corn",corn; [8],0
same,"Plant response rating, Corn",corn; [9],50
same,Corn plant response rating,corn; 125 g ai/ha,0
same,"Plant response rating, Corn",corn; [10],20
same,"Plant response rating, Sedge, Umbrella","sedge, umbrella",60
same,"Plant response rating, Wheat",wheat; [8],20
same,"Plant response rating, Wheat",wheat; [9],40
same,Wheat plant response rating,wheat; 125 g ai/ha,0
same,"Plant response rating, Wheat",wheat; [10],50
same,"Plant response rating, Wheat",wheat (winter wheat); [1],0
same,"Plant response rating, Wheat",wheat (winter wheat); [2],0
same,"Plant response rating, Wheat",wheat (winter wheat); [3],0
same,"Plant response rating, Wheat",wheat (winter wheat); [4],5
same,"Plant response rating, Wheat",wheat (winter wheat); [5],20
same,"Plant response rating, Wheat",wheat (winter wheat); [6],45
same,"Plant response rating, Wheat",wheat (winter wheat); [7],0
same,"Plant response rating, Ragweed",ragweed; [1],0
same,"Plant response rating, Ragweed",ragweed; [2],5
same,"Plant response rating, Ragweed",ragweed; [3],5
same,"Plant response rating, Ragweed",ragweed; [4],35
same,"Plant response rating, Ragweed",ragweed; [5],10
same,"Plant response rating, Ragweed",ragweed; [6],10
same,"Plant response rating, Ragweed",ragweed; [7],0
O=C1NCC(c2cc(F)c(F)cc2F)C1C(=O)Nc1cccc(F)c1F (stereo not drawn) [Compound 50],"Plant response rating, Barnyardgrass",barnyardgrass,0
same,"Plant response rating, Morningglory",morningglory; [2],0
same,"Plant response rating, Morningglory",morningglory; [3],0
same,"Plant response rating, Morningglory",morningglory; [4],10
same,"Plant response rating, Morningglory",morningglory; [11],10
same,"Plant response rating, Oat, Wild","oat, wild; [2]",0
same,"Plant response rating, Oat, Wild","oat, wild; [3]",0
same,"Plant response rating, Oat, Wild","oat, wild; [4]",0
same,"Plant response rating, Oat, Wild","oat, wild; [11]",0
same,"Plant response rating, Rice",rice,0
same,"Plant response rating, Pigweed",pigweed; [8],0
same,"Plant response rating, Pigweed",pigweed; [9],0
same,Pigweed plant response rating,pigweed; 125 g ai/ha,0
same,"Plant response rating, Pigweed",pigweed; [10],0
same,"Plant response rating, Corn",corn; [8],0
same,"Plant response rating, Corn",corn; [9],0
same,Corn plant response rating,corn; 125 g ai/ha,0
same,"Plant response rating, Corn",corn; [10],0
same,"Plant response rating, Sedge, Umbrella","sedge, umbrella",55
same,"Plant response rating, Wheat",wheat; [8],0
same,"Plant response rating, Wheat",wheat; [9],0
same,Wheat plant response rating,wheat; 125 g ai/ha,0
same,"Plant response rating, Wheat",wheat; [10],0
same,"Plant response rating, Wheat",wheat (winter wheat); [2],0
same,"Plant response rating, Wheat",wheat (winter wheat); [3],0
same,"Plant response rating, Wheat",wheat (winter wheat); [4],0
same,"Plant response rating, Wheat",wheat (winter wheat); [11],0
same,"Plant response rating, Ragweed",ragweed; [2],0
same,"Plant response rating, Ragweed",ragweed; [3],0
same,"Plant response rating, Ragweed",ragweed; [4],0
same,"Plant response rating, Ragweed",ragweed; [11],10
O=C1NC[C@H](c2cccc(C(F)(F)F)c2)[C@H]1C(=O)Nc1cccc(F)c1F [Compound 206],"Plant response rating, Morningglory",morningglory; [12],20
same,"Plant response rating, Morningglory",morningglory; [13],20
same,"Plant response rating, Morningglory",morningglory; [4],35
same,"Plant response rating, Morningglory",morningglory; [11],45
same,Morningglory plant response rating,morningglory; [14],0
same,Morningglory plant response rating,morningglory; [15],0
same,"Plant response rating, Morningglory",morningglory; [6],0
same,"Plant response rating (scale of 0 to 100), Morningglory","morningglory; Preemergence, 250 g ai/ha",10
same,"Plant response rating, Oat, Wild","oat, wild; [12]",0
same,"Plant response rating, Oat, Wild","oat, wild; [13]",5
same,"Plant response rating, Oat, Wild","oat, wild; [4]",45
same,"Plant response rating, Oat, Wild","oat, wild; [11]",50
same,"Plant response rating, Oilseed Rape",oilseed rape; [12],0
same,"Plant response rating, Oilseed Rape",oilseed rape; [13],30
same,"Plant response rating, Oilseed Rape",oilseed rape; [4],50
same,"Plant response rating, Oilseed Rape",oilseed rape; [11],55
same,Oilseed Rape plant response rating,oilseed rape; [14],5
same,Oilseed Rape plant response rating,oilseed rape; [15],70
same,"Plant response rating, Oilseed Rape",oilseed rape; [6],75
same,"Plant response rating (scale of 0 to 100), Oilseed Rape","oilseed rape; Preemergence, 250 g ai/ha",90
same,"Plant response rating, Waterhemp",waterhemp; [12],0
same,"Plant response rating, Waterhemp",waterhemp; [13],0
same,"Plant response rating, Waterhemp",waterhemp; [4],35
same,"Plant response rating, Waterhemp",waterhemp; [11],30
same,Waterhemp plant response rating,waterhemp; [14],70
same,Waterhemp plant response rating,waterhemp; [15],100
same,"Plant response rating, Waterhemp",waterhemp; [6],100
same,"Plant response rating (scale of 0 to 100), Waterhemp","waterhemp; Preemergence, 250 g ai/ha",100
same,"Plant response rating, Pigweed","pigweed; 125 g ai/ha, visual rating, 0 to 100 scale, 0 no effect, 100 complete control, approximately 10 days, preemergence",30
same,"Plant response rating, Pigweed",pigweed; [16],50
same,"Pigweed plant response rating (0 to 100 scale, 0 is no effect, 100 is complete control)","pigweed; Postemergence, 500 g ai/ha",70
same,"Plant response rating, Pigweed","pigweed; preemergence, 500 g ai/ha, 0 to 100 scale, 0 is no effect and 100 is complete control",80
same,"Plant response rating, Corn",corn; [16],60
same,"Corn plant response rating (0 to 100 scale, 0 is no effect, 100 is complete control)","corn; Postemergence, 500 g ai/ha",80
same,"Plant response rating, Wheat",wheat; [16],70
same,"Wheat plant response rating (0 to 100 scale, 0 is no effect, 100 is complete control)","wheat; Postemergence, 500 g ai/ha",80
same,"Plant response rating, Wheat",wheat (winter wheat); [12],0
same,"Plant response rating, Wheat",wheat (winter wheat); [13],0
same,"Plant response rating, Wheat",wheat (winter wheat); [4],30
same,"Plant response rating, Wheat",wheat (winter wheat); [11],45
same,Wheat plant response rating,wheat (winter wheat); [14],35
same,Wheat plant response rating,wheat (winter wheat); [15],40
same,"Plant response rating, Wheat",wheat (winter wheat); [6],70
same,"Plant response rating (scale of 0 to 100), Wheat","wheat (winter wheat); Preemergence, 250 g ai/ha",70
same,"Plant response rating, Ragweed",ragweed; [12],5
same,"Plant response rating, Ragweed",ragweed; [13],0
same,"Plant response rating, Ragweed",ragweed; [4],25
same,"Plant response rating, Ragweed",ragweed; [11],5
same,Ragweed plant response rating,ragweed; [14],80
same,Ragweed plant response rating,ragweed; [15],10
same,"Plant response rating, Ragweed",ragweed; [6],70
same,"Plant response rating (scale of 0 to 100), Ragweed","ragweed; Preemergence, 250 g ai/ha",98
